Tests used:
Assay in all cases: qHTS cell viability (CellTiter-Glo, 72 h; primary and follow-up small molecule screen)
Assay type in all cases: cell-based, human
MKL-1 cells (VP-MCC) = system: MKL-1 cells (VP-MCC)
MCC26 cells (VN-MCC) = system: MCC26 cells (VN-MCC)
MCC13 cells (VN-MCC) = system: MCC13 cells (VN-MCC)
MKL-2 cells (VP-MCC) = system: MKL-2 cells (VP-MCC)
UISO cells (VN-MCC) = system: UISO cells (VN-MCC)
WAGA cells (VP-MCC) = system: WAGA cells (VP-MCC)

SMILES: COc1cc(O)c2c(c1)oc(=O)c1c3cc(O)c(O)cc3oc21 [WEDELOLACTONE]
- Area under the dose-response curve (AUC) MKL-1 Replicate 1 (MKL-1 cells (VP-MCC)): 490.5
- Area under the dose-response curve (AUC) MKL-1 Replicate 2 (MKL-1 cells (VP-MCC)): 454.4
- Area under the dose-response curve (AUC) MKL-1 Replicate 3 (MKL-1 cells (VP-MCC)): 448.6
- Area under the dose-response curve (AUC) MCC26 Replicate 1 (MCC26 cells (VN-MCC)): 436.4
- Area under the dose-response curve (AUC) MCC26 Replicate 2 (MCC26 cells (VN-MCC)): 432.2
- Area under the dose-response curve (AUC) MCC26 Replicate 3 (MCC26 cells (VN-MCC)): 441.9
- Area under the dose-response curve (AUC) MCC13 Replicate 1 (MCC13 cells (VN-MCC)): 452.7
- Area under the dose-response curve (AUC) MCC13 Replicate 2 (MCC13 cells (VN-MCC)): 445.8
- Area under the dose-response curve (AUC) MCC13 Replicate 3 (MCC13 cells (VN-MCC)): 440.3
- Area under the dose-response curve (AUC) MKL-2 Replicate 1 (MKL-2 cells (VP-MCC)): 426.5
- Area under the dose-response curve (AUC) MKL-2 Replicate 2 (MKL-2 cells (VP-MCC)): 409.5
- Area under the dose-response curve (AUC) MKL-2 Replicate 3 (MKL-2 cells (VP-MCC)): 433.4
- Area under the dose-response curve (AUC) UISO Replicate 1 (UISO cells (VN-MCC)): 275.6
- Area under the dose-response curve (AUC) UISO Replicate 2 (UISO cells (VN-MCC)): 271.0
- Area under the dose-response curve (AUC) UISO Replicate 3 (UISO cells (VN-MCC)): 228.5
- Area under the dose-response curve (AUC) WAGA Replicate 1 (WAGA cells (VP-MCC)): 442.4
- Area under the dose-response curve (AUC) WAGA Replicate 2 (WAGA cells (VP-MCC)): 419.0
- Area under the dose-response curve (AUC) WAGA Replicate 3 (WAGA cells (VP-MCC)): 421.6

SMILES: CC(=O)C1=C(O)[C@@H]2[C@H]3c4c[nH]c5cccc(c45)C[C@H]3C(C)(C)N2C1=O [Cyclopiazonic acid]
- Area under the dose-response curve (AUC) MKL-1 Replicate 1 (MKL-1 cells (VP-MCC)): 549.5
- Area under the dose-response curve (AUC) MKL-1 Replicate 2 (MKL-1 cells (VP-MCC)): 470.8
- Area under the dose-response curve (AUC) MKL-1 Replicate 3 (MKL-1 cells (VP-MCC)): 482.5
- Area under the dose-response curve (AUC) MCC26 Replicate 1 (MCC26 cells (VN-MCC)): 467.3
- Area under the dose-response curve (AUC) MCC26 Replicate 2 (MCC26 cells (VN-MCC)): 434.2
- Area under the dose-response curve (AUC) MCC26 Replicate 3 (MCC26 cells (VN-MCC)): 474.3
- Area under the dose-response curve (AUC) MCC13 Replicate 1 (MCC13 cells (VN-MCC)): 495.4
- Area under the dose-response curve (AUC) MCC13 Replicate 2 (MCC13 cells (VN-MCC)): 488.6
- Area under the dose-response curve (AUC) MCC13 Replicate 3 (MCC13 cells (VN-MCC)): 449.6
- Area under the dose-response curve (AUC) MKL-2 Replicate 1 (MKL-2 cells (VP-MCC)): 490.7
- Area under the dose-response curve (AUC) MKL-2 Replicate 2 (MKL-2 cells (VP-MCC)): 497.0
- Area under the dose-response curve (AUC) MKL-2 Replicate 3 (MKL-2 cells (VP-MCC)): 473.0
- Area under the dose-response curve (AUC) UISO Replicate 1 (UISO cells (VN-MCC)): 472.8
- Area under the dose-response curve (AUC) UISO Replicate 2 (UISO cells (VN-MCC)): 458.0
- Area under the dose-response curve (AUC) UISO Replicate 3 (UISO cells (VN-MCC)): 445.8
- Area under the dose-response curve (AUC) WAGA Replicate 1 (WAGA cells (VP-MCC)): 561.2
- Area under the dose-response curve (AUC) WAGA Replicate 2 (WAGA cells (VP-MCC)): 524.5
- Area under the dose-response curve (AUC) WAGA Replicate 3 (WAGA cells (VP-MCC)): 501.8

SMILES: CO[C@@H]1C[C@@H](C[C@H]2CC[C@H](C)[C@H]([C@@H](C)C(=O)[O-])O2)O[C@]2(O[C@](C)([C@H]3CC[C@@](C)([C@@H]4O[C@@H]([C@H]5O[C@@](O)(CO)[C@H](C)C[C@@H]5C)C[C@@H]4C)O3)C[C@H]2C)[C@@H]1C.[Na+] [Nigericin sodium salt]
- Area under the dose-response curve (AUC) MKL-1 Replicate 1 (MKL-1 cells (VP-MCC)): 303.1
- Area under the dose-response curve (AUC) MKL-1 Replicate 2 (MKL-1 cells (VP-MCC)): 277.9
- Area under the dose-response curve (AUC) MKL-1 Replicate 3 (MKL-1 cells (VP-MCC)): 285.1
- Area under the dose-response curve (AUC) MCC26 Replicate 1 (MCC26 cells (VN-MCC)): 423.1
- Area under the dose-response curve (AUC) MCC26 Replicate 2 (MCC26 cells (VN-MCC)): 378.2
- Area under the dose-response curve (AUC) MCC26 Replicate 3 (MCC26 cells (VN-MCC)): 418.9
- Area under the dose-response curve (AUC) MCC13 Replicate 1 (MCC13 cells (VN-MCC)): 420.5
- Area under the dose-response curve (AUC) MCC13 Replicate 2 (MCC13 cells (VN-MCC)): 422.2
- Area under the dose-response curve (AUC) MCC13 Replicate 3 (MCC13 cells (VN-MCC)): 367.3
- Area under the dose-response curve (AUC) MKL-2 Replicate 1 (MKL-2 cells (VP-MCC)): 228.1
- Area under the dose-response curve (AUC) MKL-2 Replicate 2 (MKL-2 cells (VP-MCC)): 251.1
- Area under the dose-response curve (AUC) MKL-2 Replicate 3 (MKL-2 cells (VP-MCC)): 280.4
- Area under the dose-response curve (AUC) UISO Replicate 1 (UISO cells (VN-MCC)): 277.0
- Area under the dose-response curve (AUC) UISO Replicate 2 (UISO cells (VN-MCC)): 262.8
- Area under the dose-response curve (AUC) UISO Replicate 3 (UISO cells (VN-MCC)): 250.0
- Area under the dose-response curve (AUC) WAGA Replicate 1 (WAGA cells (VP-MCC)): 344.8
- Area under the dose-response curve (AUC) WAGA Replicate 2 (WAGA cells (VP-MCC)): 317.4
- Area under the dose-response curve (AUC) WAGA Replicate 3 (WAGA cells (VP-MCC)): 302.7
